Laboratory results from patent US20240391900A1, “RIP1 KINASE INHIBITOR AND USE THEREOF” (SIRONAX (BEIJING) CO., LTD., priority 2021, published 2024).
pEC50: −log10 of the molar value.

test system: HT-29 human colon cancer cells; assay: In vitro biological activity assay: inhibition of TNFα/SmacM/Z_VAD FMK-induced programmed necrosis, CellTiter-Glo viability; type: cell-based; conditions: HT-29 cells, necrosis induced with TNF-α 100 ng/mL, SmacM 100 nM, Z_VAD-FMK 10 μM, overnight, cell viability by chemiluminescence
Description: In order to verify the inhibitory effect of the compounds of the present disclosure on programmed necrosis at the cellular level, a type of cells closely related to the RIP1 pathway, namely HT-29 human colon cancer cells, were selected. The used activation mode is a combination of tumor necrosis factor (TNFα), cysteine aspartate activator mimic (SmacM) and pan-caspase inhibitor Z_VAD FMK, and the cell viability was calculated by detecting chemiluminescence values, thus obtaining the biological activity of the compound inhibiting the programmed necrosis of cells.
Cell line: HT-29 (ATCC® HTB-38™)
• 2.1. The Growth Status of HT-29 Cells was Regularly Checked to Ensure their Normal Growth. • 2.2. McCOY's 5A culture medium containing 10% FBS was preheated in a 37° C. water bath for 30 minutes. When the culture medium was ready for use, the cell passage and inoculation was performed in a Class II safety cabinet with aseptic technique. • 2.3. In a T75 culture flask, when the growth density of cells reached the abundance of approximately 80%, the culture medium was aspirated and cells were washed twice with pre-warmed PBS. • 2.4. 2-3 mL of trypsin (Gibco, catalog number 25200-056) was added and the T75 culture flask was transferred to a 37° C. incubator. • 2.5. After 3-5 minutes, the side of the culture flask was tapped and examined under a microscope for detachment of the cells to the flask. If necessary, the cells were placed back into the incubator to wait for another 5-10 minutes until 85% of the cells were detached from each other. • 2.6. 6-9 mL of complete cell culture medium was quickly added to terminate the trypsin reaction, and then the cells were transferred to a sterile 15 mL centrifuge tube. The cells were pelleted by centrifugation at 300 g for 5-7 minutes in a centrifuge, and then the supernatant was decanted. • 2.7. The cells were resuspended in 10 mL of fresh cell culture medium and the cells were counted by using a hemocytometer. • 2.8. 3,000 cells contained in 100 μL were inoculated into each well of a sterile 96-well cell culture plate (Corning 3903) and cultured overnight at 37° C. under 5% CO2.
• 3.1. All batches of compounds were dissolved in dimethyl sulfoxide (DMSO) to prepare a 20 mM stock. • 3.2. 3 μL of 20 mM stock of each compound was added to 27 μL of DMSO and mixed thoroughly, and then diluted at a dilution ratio of […] (20 μL compound+40 μL DMSO) until the 10-12 points ended. After the compounds were diluted, they were set aside for use. • 3.3. The cell culture plate was taken out from the incubator, washed once with PBS, and replaced with a fresh culture medium free of serum. A mixture of TNF-α (100 ng/mL), SMAC mimic (SmacM, 100 nM) and Z_VAD-FMK (10 μM) was added to induce the programmed necrosis in HT-29 cells. • 3.4. The compound dilution plate was prepared, 0.5 μL of the diluted compound was added to the corresponding 96-well plate, and mixed gently. Two duplicate wells were prepared for each compound. • 3.5. The treated 96-well plate to which the compounds had been added was placed back into the 37° C. incubator containing 5% CO2 and incubated overnight.
The luminescence cell viability detection kit was used to calculate the activity of the compound by measuring the ATP content in viable cells. • 4.1. The CellTiter-Glo® buffer and dry powdered substrate were equilibrated to room temperature before use. • 4.2. The CellTiter-Glo® substrate was resuspended with Cell Titer-Glo® buffer, then homogeneously mixed by gently vortexing. • 4.3. The cell culture plate was taken out and equilibrated at room temperature for 10 minutes (usually not suitable if more than 30 minutes). • 4.4. 20 μL of enzyme/substrate mixture was added into the 96-well assay plate with a multi-channel pipettor. • 4.5. The 96-well assay plate was placed on a shaker and the content was mixed for 2-3 minutes to promote the cell lysis. • 4.6. […]

Q: How did the pEC50 turn out when C(#Cc1cnc2cccnn12)c1cc(-n2cc3c(n2)C(c2ccccc2)CC3)ncn1 (stereo not drawn) [Compound 8, 3-((6-(6-phenyl-5,6-dihydrocyclopenta[c]pyrazol-2 (4H)-yl)pyrimidine-4-yl)ethynyl)imidazo[1,2-b]pyridazine] was run?
A: Its pEC50 is 6.00 to 7.00.

Q: How did the pEC50 turn out when Oc1cnc(C#Cc2cncc(-n3cc4c(n3)C(c3ccccc3)CC4)c2)cn1 (stereo not drawn) [Compound 12, 5-((5-(6-phenyl-5,6-dihydrocyclopenta[c]pyrazol-2 (4H)-yl)pyridin-3-yl)ethynyl)pyrazine-2-ol] was run?
A: Its pEC50 is under 6.00.

Q: How did the pEC50 turn out when Nc1ncc(C#Cc2cncc(-n3cc4c(n3)[C@@H](c3ccccc3)CC4)c2)cn1 [Compound 13, (R)-5-((5-(6-phenyl-5,6-dihydrocyclopenta[c]pyrazol-2 (4H)-yl)pyridin-3-yl)ethynyl)pyrimidin-2-amine] was run?
A: Its pEC50 is at least 7.00.

Q: With Nc1ccc(C#Cc2cncc(-n3cc4c(n3)C(c3ccccc3)CC4)c2)nn1 (stereo not drawn) [Compound 17, 6-((5-(6-phenyl-5,6-dihydrocyclopenta[c]pyrazol-2 (4H)-yl)pyridin-3-yl)ethynyl)pyridazine-3-amine] as the molecule, how does the pEC50 read?
A: Its pEC50 is at least 7.00.

Q: With Nc1cnc(C#Cc2cncc(-n3cc4c(n3)C(c3ccccc3)CC4)c2)cn1 (stereo not drawn) [Compound 18, 5-((5-(6-phenyl-5,6-dihydrocyclopenta[c]pyrazol-2 (4H)-yl)pyridin-3-yl)ethynyl)pyrazine-2-amine] as the molecule, how does the pEC50 read?
A: Its pEC50 is at least 7.00.

Q: How did the pEC50 turn out when Nc1ncc(C#Cc2cncc(-n3cc4c(n3)C(c3cncc(F)c3)CC4)c2)cn1 (stereo not drawn) [Compound 19, 5-((5-(6-(5-fluoropyridin-3-yl)-5,6-dihydrocyclopenta[c]pyrazol-2 (4H)-yl)pyridin-3-yl)ethynyl)pyrimidin-2-amine] was run?
A: Its pEC50 is at least 7.00.

Q: How did the pEC50 turn out when N#Cc1cc(F)cc(C2CCc3cn(-c4cncc(C#Cc5cnc(N)nc5)c4)nc32)c1 (stereo not drawn) [Compound 20, 3-(2-(5-((2-aminopyrimidin-5-yl)ethynyl)pyridin-3-yl)-2,4,5,6-tetrahydrocyclopenta[c]pyrazol-6-yl)-5-fluorobenzonitrile] was run?
A: Its pEC50 is at least 7.00.

Q: Cn1cc(C#Cc2cncc(-n3cc4c(n3)[C@H](c3ccccc3)CC4)c2)cnc1=O [Compound 21, (S)-1-methyl-5-((5-(6-phenyl-5,6-dihydrocyclopenta[c]pyrazol-2 (4H)-yl)pyridin-3-yl)ethynyl)pyrimidine-2 (1H)-one] was tested. Which pEC50 did it give?
A: The pEC50 was 6.00 to 7.00.

Q: With Cc1cnn(C)c1C#Cc1cccc(-n2cc3c(n2)C(c2ccccc2)CC3)c1 (stereo not drawn) [Compound 22, 2-(3-((1,4-dimethyl-1H-pyrazole-5-yl)ethynyl)phenyl)-6-phenyl-2,4,5,6-tetrahydrocyclopenta[c]pyrazole] as the molecule, how does the pEC50 read?
A: Its pEC50 is at least 7.00.

Q: With Cn1nccc1C#Cc1cccc(-n2cc3c(n2)C(c2ccccc2)CC3)c1 (stereo not drawn) [Compound 23, 2-(3-((1-methyl-1H-pyrazole-5-yl)ethynyl)phenyl)-6-phenyl-2,4,5,6-tetrahydrocyclopenta[c]pyrazole] as the molecule, how does the pEC50 read?
A: The pEC50 was at least 7.00.

Q: With Cn1cc(C#Cc2cccc(-n3cc4c(n3)C(c3ccccc3)CC4)c2)cn1 (stereo not drawn) [Compound 25, 2-(3-((1-methyl-iH-pyrazole-4-yl)ethynyl)phenyl)-6-phenyl-2,4,5,6-tetrahydrocyclopenta[c]pyrazole] as the molecule, how does the pEC50 read?
A: The pEC50 was at least 7.00.

Q: C(#Cc1cnc2cccnn12)c1cncc(-n2cc3c(n2)C(c2ccccc2)CC3)n1 (stereo not drawn) [Compound 26, 3-((6-(6-phenyl-5,6-dihydrocyclopenta[c]pyrazol-2 (4H)-yl)pyrazin-2-yl)ethynyl)imidazo[1,2-b]pyridazine] was tested. Which pEC50 did it give?
A: The pEC50 was at least 7.00.

Q: C(#Cc1cnc2cccnn12)c1ccnc(-n2cc3c(n2)C(c2ccccc2)CC3)c1 (stereo not drawn) [Compound 27] was tested. Which pEC50 did it give?
A: The pEC50 was at least 7.00.

Q: How did the pEC50 turn out when Nc1ncc(C#Cc2cncc(-n3cc4c(n3)C(c3ccccc3)CC4)n2)cn1 (stereo not drawn) [Compound 29] was run?
A: The pEC50 was at least 7.00.

Q: Cc1cncc(C#Cc2cccc(-n3cc4c(n3)C(c3ccccc3)CC4)c2)c1 (stereo not drawn) [Compound 34, 2-(3-((5-methylpyridin-3-yl)ethynyl)phenyl)-6-phenyl-2,4,5,6-tetrahydrocyclopenta[c]pyrazole] was tested. Which pEC50 did it give?
A: Its pEC50 is at least 7.00.

Q: Cc1ccc(C#Cc2cccc(-n3cc4c(n3)C(c3ccccc3)CC4)c2)cn1 (stereo not drawn) [Compound 35, 2-(3-((6-methylpyridin-3-yl)ethynyl)phenyl)-6-phenyl-2,4,5,6-tetrahydrocyclopenta[c]pyrazole] was tested. Which pEC50 did it give?
A: Its pEC50 is at least 7.00.

Q: Clc1ncc(C#Cc2cncc(-n3cc4c(n3)C(c3ccccc3)CC4)c2)cn1 (stereo not drawn) [Compound 41, 2-(5-((2-chloropyrimidin-5-yl)ethynyl)pyridin-3-yl)-6-phenyl-2,4,5,6-tetrahydrocyclopenta[c]pyrazole] was tested. Which pEC50 did it give?
A: The pEC50 was 6.00 to 7.00.

Q: How did the pEC50 turn out when Cc1c(C#Cc2cnc(N)nc2)cncc1-n1cc2c(n1)C(c1ccccc1)CC2 (stereo not drawn) [Compound 43, 5-((4-methyl-5-(6-phenyl-5,6-dihydrocyclopenta[c]pyrazol-2 (4H)-yl)pyridine-3-yl)ethynyl)pyrimidin-2-amine] was run?
A: The pEC50 was at least 7.00.

Q: Nc1ncc(C#Cc2cncc(-n3cc4c(n3)[C@H](c3cccc(F)c3)CC4)c2)cn1 [Compound 46] was tested. Which pEC50 did it give?
A: Its pEC50 is at least 7.00.

Q: How did the pEC50 turn out when Nc1ncc(C#Cc2cncc(-n3cc4c(n3)[C@@H](c3cccc(F)c3)CC4)c2)cn1 [Compound 47, (R)-5-((5-(6-(3-fluorophenyl)-5,6-dihydrocyclopenta[c]pyrazol-2 (4H)-yl)pyridine-3-yl)ethynyl)pyrimidin-2-amine] was run?
A: Its pEC50 is at least 7.00.

Q: With Nc1ncc(C#Cc2cncc(-n3cc4c(n3)C(c3cc(F)cc(F)c3)CC4)c2)cn1 (stereo not drawn) [Compound 48] as the molecule, how does the pEC50 read?
A: The pEC50 was at least 7.00.

Q: Nc1ncc(C#Cc2cncc(-n3cc4c(n3)[C@@H](c3cc(F)cc(F)c3)CC4)c2)cn1 [Compound 49, (R)-5-((5-(6-(3,5-difluorophenyl)-5,6-dihydrocyclopenta[c]pyrazol-2 (4H)-yl)pyridin-3-yl)ethynyl)pyrimidin-2-amine] was tested. Which pEC50 did it give?
A: Its pEC50 is at least 7.00.

Q: Nc1ncc(C#Cc2cncc(-n3cc4c(n3)[C@H](c3cc(F)cc(F)c3)CC4)c2)cn1 [Compound 50, (S)-5-((5-(6-(3,5-difluorophenyl)-5,6-dihydrocyclopenta[c]pyrazol-2 (4H)-yl)pyridin-3-yl)ethynyl)pyrimidin-2-amine] was tested. Which pEC50 did it give?
A: Its pEC50 is at least 7.00.

Q: C(#Cc1cnc2cccnn12)c1cccc(-n2nc3c(n2)C(c2ccccc2)CC3)c1 (stereo not drawn) [Compound 53, 3-((3-(4-phenyl-5,6-dihydrocyclopenta[d][1,2,3]triazol-2 (4H)-yl)phenyl)ethynyl)imidazo[1,2-b]pyridazine] was tested. Which pEC50 did it give?
A: Its pEC50 is at least 7.00.

Q: With Cn1c(-n2nc3c(n2)C(c2cncc(F)c2)CC3)cc(C#Cc2cnc(N)nc2)cc1=O (stereo not drawn) [Compound 59, 4-((2-aminopyrimidin-5-yl)ethynyl)-6-(4-(5-fluoropyridin-3-yl)-5,6-dihydrocyclopenta[d][1,2,3]triazol-2 (4H)-yl)-1-methylpyridin-2 (1H)-one] as the molecule, how does the pEC50 read?
A: Its pEC50 is at least 7.00.

Q: How did the pEC50 turn out when Nc1ncc(C#Cc2c[nH]c(=O)c(-n3nc4c(n3)C(c3ccccc3)CC4)c2)cn1 (stereo not drawn) [Compound 60, 5-((2-aminopyrimidin-5-yl)ethynyl)-3-(4-phenyl-5,6-dihydrocyclopenta[d][1,2,3]triazol-2 (4H)-yl)pyridine-2 (1H)-one] was run?
A: The pEC50 was under 6.00.

Q: With Cc1ncc(C#Cc2cnc(N)nc2)cc1-n1nc2c(n1)C(C1CCCCC1)CC2 (stereo not drawn) [Compound 64, 5-((5-(4-cyclohexyl-5,6-dihydrocyclopenta[d][1,2,3]triazol-2 (4H)-yl)-6-methylpyridin-3-yl)ethynyl)pyrimidin-2-amine] as the molecule, how does the pEC50 read?
A: The pEC50 was at least 7.00.
